# Literature values, collected in US10085951B2, “Curcuminoid formulations and related methods of treatment” (DESIGNS FOR HEALTH, INC., priority 2014, dated 2018).
smiles,measurement,value
"COc1cc(/C=C/C(=O)CC(=O)/C=C/c2ccc(O)c(OC)c2)ccc1O [curcumin, 1,6-heptadiene-3,5-dione1,7-bis (4-hydroxy-3-methoxyphenyl)-(1E,6E)]","Solubility in ethanol, dimethylsulfoxide and acetone",soluble
same,Solubility in water and ether,practically insoluble
